# Measurements: patent US8735375B2, “Therapeutic compositions” (Leo Laboratories Limited, priority 2005, dated 2014)
# Tests used:
# [1] = Preliminary in vitro diffusion study (Franz cell); assay type: in vitro ADME; settings: human stratum corneum, at detectable levels
# Source text: Once the stability of I3A in the excipients and penetration enhancers had been established, a preliminary in vitro diffusion experiment could be conducted to determine the permeation of stratum corneum by I3A from some simple formulations. The Franz diffusion cell is designed to mimic the physiological and anatomical conditions of skin in situ. It is an air/fluid phase static cell, which comprises a donor compartment, receptor compartment and a side arm sampling port (see FIG. 1). Surgically excised skin is positioned between the two halves with the stratum corneum facing the donor compartment to allow for drug application.
# An initial in vitro diffusion experiment using a simple formulation of I3A in miglyol was performed. […] This formulation was used in later diffusion cell experiments as a negative control and also served to confirm the integrity of the stratum corneum, as if there is no diffusion of drug from this formulation, it can be assumed that the stratum corneum remains intact.
# A formulation of I3A was prepared in phosphate buffer (pH 4.5) with β-cyclodextrins (Captisol®) added with a view to increasing the solubility and stability of I3A, and the flux of the drug. A second formulation in DMSO, a known penetration enhancer, was also prepared for comparative purposes, as well as a formulation in miglyol, which served as a negative control. […]
# [2] = Stability of I3A at various pH's (buffers); assay type: physicochemical; settings: room temperature
# Experimental: The stability of I3A was investigated at pH 4.5 in two buffers i.e. monopotassium phosphate/disodium phosphate and acetic acid/ammonium acetate for 24 h at room temperature.
# Stability of I3A in DMSO = assay type: physicochemical; settings: 10 days
# Experimental: I3A was investigated for stability in DMSO at room temperature and at 37° C. over a 10 day time period. A control sample of I3A in acetonitrile was kept under the same conditions as the test sample. The samples were analysed by HPLC at the start of the experiment (Day 0), after 48 hours (Day 2) and again after 10 days.
# The chromatographic conditions employed were as follows: […]
# [3] = Stability of I3A 'b' in isopropanol gel (pH 6.5); assay type: physicochemical; settings: 0.02% (w/w) I3A 'b' in isopropanol gel pH 6.5; 2-8° C., RTP and 40° C.
# Experimental: The stability of I3A ‘b’ in an isopropanol gel preparation (pH 6.5) was investigated. The protocol was as follows:
# The Carbopol® was dispersed in the water and glycerin and dissolved by heating to 40° C. in a water bath. The propyl alcohol was then added to this solution. The cyclomethicone was dissolved in the isopropyl alcohol and this second solution was mixed well with the Carbopol® solution, and then water was added, with stirring, to 100%. The pH of the gel was brought to 6.5 with the dropwise addition of ethanolamine. The isopropanol gel was stored at 2-8° C. until use.
# To investigate the stability of I3A ‘b’ in isopropanol gel (pH 6.5), a 0.02% (w/w) I3A ‘b’/Visopropanol gel formulation was prepared and divided into three samples for storage at 2-8° C., RTP and 40° C. At regular time points the samples were analysed in duplicate for the stability of I3A ‘b’ in terms of the formation of isoform ‘a’, with the results given in FIG. 2.
# [4] = Preliminary stability of I3A in receiver fluid 20% v/v ethanol/citrate buffer (pH 3.0); assay type: physicochemical; settings: 37° C., after 18 h
# Experimental: The receiver fluid employed to try and maintain sink conditions was 20% v/v ethanol/citrate buffer (pH 3.0) and this was incorporated into the Franz cell and stirred constantly with a magnetic stirrer. Preliminary stability studies were conducted on I3A in 20% v/v ethanol/citrate buffer (pH 3.0) at 37° C. over ca. 18 h. […] For the purpose of the Franz cell study this was considered acceptable.
# [5] = Kinetic solubility of I3A in 20% v/v ethanol/citrate buffer (pH 3.0); assay type: physicochemical; settings: aqueous with cosolvent or surfactant or cyclodextrin, kinetic from dmso stock, 25° C.
# [6] = Dilution of I3A with normal saline (isoform conversion); assay type: physicochemical
# Source text: Oils may also be used in the present invention. The use of an emulsion based intralesional formulation has been reported for the treatment of psoriasis (Ho et al., 1990). Prior to administration, a vehicle, such as polyoxyethylated castor oil, is normally diluted with saline to form the emulsion. […] This conversion may be minimised if the administration time of the formulation is short.
smiles,measurement,setting,value
"C/C=C(/C)C(=O)O[C@H]1C(C)=C[C@]23C(=O)[C@H](C=C(CO)[C@@H](O)[C@]12O)[C@H]1[C@@H](C[C@H]3C)C1(C)C [Formulation I3A, ingenol-3-angelate]",diffusion of I3A across the stratum corneum,[1],diffuses across the stratum corneum
same,stability (predominance of isoform 'b'),"[2]; pH 4.5, monopotassium phosphate/disodium phosphate and acetic acid/ammonium acetate buffers, 24 h",stable
same,stability,"[2]; pH 5.5, 6.5 and 7.0, 14 days",decrease with an increase in pH
same,stability,Stability of I3A in DMSO; 37° C.,stable
same,stability,Stability of I3A in DMSO; room temperature,stable
same,stability in terms of the formation of isoform 'a',[3],rearranges to isoform ‘a’ and subsequently isoform ‘c’
same,percentage peak area increase in isoform ‘a’,[4],0.26%
same,solubility kinetic,[5],509.7 ± 3 µg/mL
same,conversion of isoform 'b' to 'a',[6],increases the conversion of isoform ‘b’ to ‘a’
